{"source": "paper PMC11672292", "about": "“Discovery of Balasubramide Derivative with Tissue‐Specific Anti‐Inflammatory Activity Against Acute Lung Injury by Targeting VDAC1” (Advanced Science, 2024)", "key": {"mice": {"test_system": "mice", "experiment": "Acute toxicity (LD50, sequential method), single intravenous injection", "conditions": "i.v.", "text": "To test the safety of (+)3C‐20 in mice, as previously reported,^[ [31] ^] we estimated the acute toxicity of (+)3C‐20 in mice using a sequential method."}, "[1]": {"test_system": "intratracheal LPS-induced ALI mice", "experiment": "Intratracheal instillation of LPS-induced ALI model", "format": "in vivo, mouse", "procedure": "The intratracheal instillation of the LPS‐induced ALI model in mice has been previously validated.^[ [60], [61] ^] […] The injection volume of all groups was 10 mL kg^−1. […] The mice were fixed in dorsal recumbency, then the skins and muscles of the mice were separated to expose the tracheal after disinfection. Subsequently, mice were intratracheally injected with 50 µL LPS (20 mg kg^−1) or PBS into the lung through tracheal cartilage rings by using insulin syringes and observed after stitching up the muscles and skins. At 6 h after LPS injection, mice were euthanized to collect samples required for subsequent experiments.\nAfter mice were sacrificed, the left lung tissue fixed with 4% paraformaldehyde was embedded in paraffin, cut into 5 µm thick sections, and stained with hematoxylin and eosin.\nMice were stimulated and treated as indicated in experiments and the lung was lavaged three times through the trachea with 500 µL pre‐chilled PBS buffer. The fluids were merged and centrifuged at 600 × g for 10 min. The supernatant was collected to measure total protein using the BCA kit and for pro‐inflammatory cytokines detection by ELISA described above, and cell pellets after centrifugation were resuspended in FACS buffer (PBS with 1% FBS). […] Finally, the samples were washed twice with FACS buffer and analyzed with Cytoflex S (Beckman coulter, USA)"}, "VDAC2": {"target": "T1, VDAC2 (Mus musculus, UniProt Q60930)", "T1 construct": "endogenous in cells; host or cells: RAW264.7", "T1 sequence (Q60930 1-295)": "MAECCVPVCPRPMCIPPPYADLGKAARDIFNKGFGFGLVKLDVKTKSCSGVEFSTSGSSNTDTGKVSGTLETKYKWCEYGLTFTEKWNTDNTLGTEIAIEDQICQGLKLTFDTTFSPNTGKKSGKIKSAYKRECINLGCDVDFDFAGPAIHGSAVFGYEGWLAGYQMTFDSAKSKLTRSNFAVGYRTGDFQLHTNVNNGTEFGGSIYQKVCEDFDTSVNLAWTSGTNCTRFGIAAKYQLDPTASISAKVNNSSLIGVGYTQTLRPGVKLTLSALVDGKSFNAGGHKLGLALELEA", "experiment": "Cellular thermal shift assay (CETSA) in RAW264.7 cells", "format": "binding", "conditions": "20 µM", "procedure": "(§1) For CETSA experiments, RAW264.7 cells were incubated with DMSO or (+)3C‐20 (20 µM) in DMEM for 3 h at standard culture conditions. After washed twice with PBS, the cells were collected and divided equally into 12 groups using PBS containing protease and phosphatase inhibitor cocktail. All the samples were heated in a module with pre‐set temperature (37–81 °C) for 3 min, and balanced at 25 °C for another 3 min. Samples were freeze‐thawed with liquid nitrogen three times to completely lyse cells. The 60 µL supernatant containing soluble protein was isolated by centrifugation (13 800 × g, 20 min, 4 °C), mixed with 20 µL laemmli buffer (4 ×), and heated for 10 min at 95 °C. Eventually, the samples were separated by 10% SDS‐PAGE gels for immunoblotting analysis. For ITDRF experiments, the procedures and details were similar to CETSA experiments. In brief, the RAW264.7 cells were seeded in 6‐well plates, incubated with different concentrations of (+)3C‐20, and heated at a designed temperature."}, "VDAC1": {"target": "T2, VDAC1 (Mus musculus, UniProt Q60932)", "T2 construct": "endogenous in cells; host or cells: RAW264.7", "T2 sequence (Q60932 14-296)": "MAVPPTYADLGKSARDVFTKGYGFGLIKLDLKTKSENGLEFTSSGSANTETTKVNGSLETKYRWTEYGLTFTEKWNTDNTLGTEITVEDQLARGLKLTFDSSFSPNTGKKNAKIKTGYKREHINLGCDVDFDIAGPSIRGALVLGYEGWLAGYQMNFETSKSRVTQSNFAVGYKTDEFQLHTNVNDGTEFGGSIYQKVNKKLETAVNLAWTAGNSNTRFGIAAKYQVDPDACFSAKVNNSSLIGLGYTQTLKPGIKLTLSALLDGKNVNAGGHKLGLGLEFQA", "experiment": "Cellular thermal shift assay (CETSA) in RAW264.7 cells", "format": "binding", "conditions": "20 µM, versus DMSO", "procedure": "as §1"}, "mouse BMDMs": {"test_system": "mouse BMDMs", "experiment": "LPS-induced TNF-α release in BMDMs (ELISA)", "format": "cell-based", "conditions": "BMDM, read-out: IC50, inhibition of LPS-induced TNF-α release", "procedure": "The anti‐inflammatory effects of all (+)‐balasubramide derivatives were evaluated in Lipopolysaccharide (LPS, L2630, Sigma–Aldrich, USA)‐induced macrophage inflammation model. RAW264.7 cells were pretreated with various compounds or (+)3C‐20 at different concentrations for 3 h, and then stimulated with LPS (100 ng mL^−1) for 2 h for the detection of pro‐inflammatory factors expressions. Similarly, following 3 h co‐incubation with (+)3C‐20, mouse BMDMs were stimulated with LPS (100 ng mL^−1) for 3 h. TNF‐α protein in the culture medium supernatant was measured by a commercial ELISA kit (#1 217 202, DAKEWE, China) following the manufacture's protocols."}, "BMDMs": {"test_system": "BMDMs", "experiment": "Cytosolic mtDNA measurement (qPCR) in BMDMs", "format": "cell-based, mouse", "conditions": "10 µM", "procedure": "BMDMs were stimulated and treated with 10 µM (+)3C‐20 as indicated. Cytosolic mtDNA collection was carried out as previously described.^[ [25] ^] Briefly, BMDMs were washed twice with PBS, harvested, and resuspended in 200 µL mitochondria isolation reagent (Beyotime, C3601) with protease and phosphatase inhibitor cocktail. Cell resuspension was triturated with a glass homogenizer and centrifuged at 11 000 × g for 10 min at 4 °C to pelleted down mitochondria and cell membrane, and the remaining supernatant contained the cytosolic mtDNA that were measured. After DNA purification from the supernatant with FastPure Cell DNA Isolation Mini Kit (DC102‐01, Vazyme, China) according to the manufacturer's instruction, qPCR was performed using specific mtDNA primers (D‐loop, D‐loop1, D‐loop2, D‐loop3)."}}}
{"smiles": "O=C(CCc1ccc(C(F)(F)F)cc1)O[C@@H]1C(=O)NCCc2c([nH]c3ccccc23)[C@H]1c1ccc(C(F)(F)F)cc1", "note": "[(+)3C-20]", "values": [{"measurement": "Mortality", "setting": "mice; dosage 141.42 mg/kg", "value": 0}, {"measurement": "Mortality", "setting": "mice; dosage 168.18 mg/kg", "value": 20}, {"measurement": "Mortality", "setting": "mice; dosage 200.00 mg/kg", "value": 83.33}, {"measurement": "Mortality", "setting": "mice; dosage 237.84 mg/kg", "value": 100}, {"measurement": "therapeutic effect in H&E lung histology", "setting": "[1]; 50 mg kg^−1, compared to dexamethasone 5 mg kg^−1", "value": "better therapeutic effect"}, {"measurement": "survival rate of mice", "setting": "[1]; after intratracheal instillation of LPS, 72 h observation, versus vehicle group", "value": "increased the survival rate"}, {"measurement": "lung index (lung organ coefficient)", "setting": "[1]; mice, 50 mg kg^−1 i.p., LPS 20 mg kg^−1 i.t.", "value": "reverse the upregulation of lung index"}, {"measurement": "lung wet/dry ratio", "setting": "[1]; pre-treatment at 50 mg kg^−1, LPS 20 mg kg^−1 i.t.", "value": "significantly reduced"}, {"measurement": "thermal stability of VDAC2 (CETSA)", "setting": "VDAC2", "value": "did not improve the thermal stability"}, {"measurement": "thermal stabilization of VDAC1 (CETSA)", "setting": "VDAC1", "value": "significant thermal stabilization"}, {"measurement": "IC50", "setting": "mouse BMDMs", "value": 3.64, "unit": "µM"}, {"measurement": "increase in cytosolic mtDNA caused by LPS", "setting": "BMDMs", "value": "significantly inhibited"}]}
